# Values of other authors in patent US20100092398A1, “ANTIMICROBIAL COMPOSITIONS AND APPLICATIONS THEREFORE” (priority 2004, published 2010).
# Settings: range given for terpinen-4-ol
smiles,measurement,value
CC1=CCC(O)(C(C)C)CC1 (stereo not shown) [terpinen-4-ol],Relative density @ 20° C.,0.930 to 0.936 g/mL
